Reference: patent US5521177A, “Benzimidazoles, pharmaceutical compositions containing these compounds and processes for preparing them” (Dr. Karl Thomae GmbH, priority 1992, dated 1996)
pIC50: −log10 of the molar value.

biological target: T1, Angiotensin-II-Receptor (Rattus norvegicus, UniProt P25095); test: Angiotensin-II-Receptor Bonding ([125I]-angiotensin-II displacement, rat's lung homogenate); type: binding; conditions: 50 pM [125I]-angiotensin-II, 60 minutes at 37° C., pH 7.40
T1 construct: The tissue (rat's lung) is homogenised in Tris buffer; from tissue; host or cells: rat lung homogenate
T1 sequence (P25095 1-359): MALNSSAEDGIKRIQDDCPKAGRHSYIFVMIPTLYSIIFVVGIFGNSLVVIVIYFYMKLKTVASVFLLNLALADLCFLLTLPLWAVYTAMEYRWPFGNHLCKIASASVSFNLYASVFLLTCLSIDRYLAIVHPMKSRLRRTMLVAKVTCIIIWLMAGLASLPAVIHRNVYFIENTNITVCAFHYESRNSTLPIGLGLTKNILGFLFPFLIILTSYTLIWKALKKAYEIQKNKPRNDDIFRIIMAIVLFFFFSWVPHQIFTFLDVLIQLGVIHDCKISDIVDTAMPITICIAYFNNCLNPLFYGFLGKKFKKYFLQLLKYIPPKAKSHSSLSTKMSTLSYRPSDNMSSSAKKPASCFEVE
Procedure: Description of Method: Angiotensin-II-Receptor Bonding
The tissue (rat's lung) is homogenised in Tris buffer (50 mMol Tris, 150 mMol NaCl, 5 mMol EDTA, pH 7.40) and centrifuged twice for 20 minutes each time at 20,000×g. The finished pellet is resuspended in incubation buffer (50 mMol Tris, 5 mMol MgCl2, 0.2% BSA, pH 7.40) 1:75, based on the moist weight of the tissue. Each 0.1 ml of homogenate is incubated for 60 minutes at 37° C. with 50 pM [^125 I]-angiotensin-II (NEN, Dreieich, FRG) and increasing concentrations of the test substance in a total volume of 0.25 ml. The incubation is ended by rapid filtration through glass fibre filter mats. The filters are each washed with 4 ml of ice cold buffer (25 mMol Tris, 2.5 mMol MgCl2, 0.1% BSA, pH 7.40). The bound radioactivity is measured in a gamma-counter. The corresponding IC50 value is determined from the dosage-activity curve.
Substances A to H show the following IC50 values in the test described: […]

| pIC50 | Compound |
| --- | --- |
| 7.96 | CCCc1nc2c(C)cc(NC(=NC#N)NC)cc2n1Cc1ccc(-c2ccccc2C(=O)O)cc1 [Substance A, 4'-[[2-n-Propyl-4-methyl-6-(2-cyano-3-methyl-guanidino)-1H-benzimidazol-1-yl]-methyl]-biphenyl-2-carboxylic acid] |
| 8.52 | CCCc1nc2c(C)cc(NC(=NC#N)N(C)C)cc2n1Cc1ccc(-c2ccccc2-c2nnn[nH]2)cc1 [Substance B, 4'-[[2-n-propyl-4-methyl-6-(2-cyano-3,3-dimethyl-guanidino) -1H-benzimidazol-1-yl]-methyl]-2-(1H-tetrazol-5-yl)-biphenyl] |
| 7.19 | CCCc1nc2c(C)cc(NC(=C(C#N)C#N)N(C)C)cc2n1Cc1ccc(-c2ccccc2C(=O)O)cc1 [Substance C, 4'-[[2-n-propyl-4-methyl-6-(2,2-dicyano-1-dimethylamino-etheneamino) -1H-benzimidazol-1-yl]-methyl]-biphenyl-2-carboxylic acid] |
| 7.89 | CCCc1nc2c(C)cc(NC(=C[N+](=O)[O-])N(C)C)cc2n1Cc1ccc(-c2ccccc2C(=O)O)cc1 [Substance D, 4'-[[2-n-propyl-4-methyl-6-(1-dimethylamino-2-nitro-etheneamino) -1H-benzimidazol-1-yl]methyl]-biphenyl-2-carboxylic acid] |
| 7.25 | CCCc1nc2c(C)cc(NC(=NS(N)(=O)=O)NC)cc2n1Cc1ccc(-c2ccccc2C(=O)O)cc1 [Substance E, 4'-[[2-n-propyl-4-methyl-6-(3-methyl-2-amidosulphonylguanidino) -1H-benzimidazol-1-yl]methyl]-biphenyl-2-carboxylic acid] |
| 8.70 | CCCc1nc2c(C)cc(NC(=C[N+](=O)[O-])N(C)C)cc2n1Cc1ccc(-c2ccccc2-c2nnn[nH]2)cc1 [Substance F, 4'-[[2-n-propyl-4-methyl-6-(1,1-dimethylamino-2-nitro-etheneamino) -1H-benzimidazol-1-yl]-methyl]-2-(1H-tetrazol-5-yl)-biphenyl] |
| 7.77 | CCc1nc2c(C)cc(Nc3c(N(C)C)c(=O)c3=O)cc2n1Cc1ccc(-c2ccccc2C(=O)O)cc1 [Substance G, 4'-[[2-ethyl-4-methyl-6-[(2-dimethylamino-3,4-dioxo-1-cyclobuten-1-yl) -amino]-1H-benzimidazol-1-yl]-methyl]-biphenyl-2-carboxylic acid] |
| 8.40 | CCc1nc2c(C)cc(NC(=NS(C)(=O)=O)N(C)C)cc2n1Cc1ccc(-c2ccccc2-c2nnn[nH]2)cc1 [Substance H, 4'-[[2-ethyl-4-methyl-6-(3,3-dimethyl-2-methylsulphonyl-guanidino) -1H-benzimidazol-1-yl]methyl]-2-(1H-tetrazol-5-yl)-biphenyl] |
